From PMC8837603, “Lapcin, a potent dual topoisomerase I/II inhibitor discovered by soil metagenome guided total chemical synthesis” (Nature Communications, 2022) come the findings set out here.

The IC50 is the midpoint of a concentration-inhibition curve.

Entries after “also recorded” stand apart in the source; their conditions may differ.

Series [1] deals with Acinetobacter baumannii ATCC17978. The note with it: LB, 16 h, 37 °C, n = 2. As to the method: (§1) Lapcin was tested for antimicrobial activity against the bacteria and fungi shown in Supplementary Table 4. […] Lapcin was dissolved in sterile DMSO to make a 3.2 mg/mL working solution. Lapcin was diluted across 96-well plates using a 2-fold serial dilution method to give a concentration range of 64 to 0.06 µg/mL in 50 µL of LB broth. A single colony of each test organism was grown in either 5 mL LB (bacteria) or YPD (fungi) medium overnight at 37 °C or 30 °C, respectively. Saturated overnight cultures were diluted 5,000-fold, and then 50 µL of dilute cells were transferred into each well of the assay plates. Finally, each well contains a total volume of 100 µL.

In series [2] the test system is Enterobacter cloacae ATCC13047. The note with it: LB, 16 h, 37 °C, n = 2. The protocol:
as §1

The test system of series [3] is Klebsiella pneumonia ATCC10031. The note with it: LB, 16 h, 37 °C, n = 2. The protocol:
as §1

The test system of the next series is NCI-H226 cells. The experiment in a line: cells. It counts as cell-based, human. The protocol: (§2) An MTT (2-(4,5-dimethylthiazol-2-yl)−2,5-diphenyltetrazolium bromide) assay was used to determine the cytotoxicity of lapcin towards diverse cancer cell lines. Lapcin was dissolved in DMSO to make a 3.2 mg/mL working solution. For each cancer line detailed in Supplementary Table 5, cells at 80-90% confluency were counted and seeded in 96-well, flat bottom microplates and incubated at 37 °C with a 5% CO2 atmosphere. Outer wells were unused to avoid edge effects. After adhering for 24 h, the medium was sterilely aspirated and replaced with 100 µL of fresh medium containing lapcin or a control compound serially diluted at concentrations ranging from 8,000 to 0.00382 ng/mL. After 48 h (37 °C, 5% CO2), the medium was carefully removed and 110 µL of freshly prepared MTT solution (10 µL of 5 mg/mL MTT in PBS (pH 7.4) premixed with 100 µL of complete medium) was added to each well. After 3 h at 37 °C with 5% CO2, 100 µL of solubilization solution (40% DMF, 16% SDS and 2% acetic acid in H2O) was added to each well and precipitated formazan crystals were allowed to dissolve for 4 h. The absorbance of each well was then measured at 570 nm using a Tecan microplate reader.

The next series concerns HCT116 cells. The experiment in a line: cells. It counts as cell-based, human. The note with it: colon cancer; MTT, 48 h, 37 °C; DMEM + 10% FBS; 10,000 cells/well; absorbance 570 nm; n = 3 biologically independent. As to the method: as §2
A further series deals with U2OS (Bone) cells. The experiment in a line: cells. In kind it is cell-based, human. As to the method:
as §2

The test system of another series is SW480 cells. The experiment in a line: cells. It counts as cell-based, human. The note with it: colon cancer; MTT, 48 h, 37 °C; DMEM + 10% FBS; 10,000 cells/well; absorbance 570 nm; n = 3 biologically independent. As to the method: as §2
In another series the test system is HEK293 cells. The experiment in a line: cells. It counts as cell-based, human. The note with it: normal cell; MTT, 48 h, 37 °C; DMEM + 10% FBS; 5, 000 cells/well; absorbance 570 nm; n = 3 biologically independent. As to the method:
as §2

Another series has as its system HCC1806 cells. The experiment in a line: cells. The note with it: breast cancer; MTT, 48 h, 37 °C; RPMI-1640 + 10% FBS; 2,500 cells/well; absorbance 570 nm; n = 3 biologically independent. In kind it is cell-based, human. The protocol: as §2
For the next series, the system named is HT29 cells. Briefly: cells. The note with it: colon cancer; MTT, 48 h, 37 °C; DMEM + 10% FBS; 2,500 cells/well; absorbance 570 nm; n = 3 biologically independent. It counts as cell-based, human. The protocol: as §2
In a further series the test system is MCF 7 cells. Briefly: cells. It counts as cell-based, human. The note with it: breast cancer; MTT, 48 h, 37 °C; DMEM + 10% FBS; 8,000 cells/well; absorbance 570 nm; n = 3 biologically independent. As to the method: as §2
The subject of series [4] is diverse microbial pathogens. Briefly: Antimicrobial/antifungal susceptibility, whole panel. In kind it is cell-based. The note with it: at the highest concentration tested. The protocol:
Lapcin was tested for antimicrobial activity against the bacteria and fungi shown in Supplementary Table 4. […] Ciprofloxacin (Sigma, USA) and Nystatin (Sigma, USA) were used as positive control for bacteria and fungi, respectively. Lapcin was dissolved in sterile DMSO to make a 3.2 mg/mL working solution. Lapcin was diluted across 96-well plates using a 2-fold serial dilution method to give a concentration range of 64 to 0.06 µg/mL in 50 µL of LB broth. A single colony of each test organism was grown in either 5 mL LB (bacteria) or YPD (fungi) medium overnight at 37 °C or 30 °C, respectively. Saturated overnight cultures were diluted 5,000-fold, and then 50 µL of dilute cells were transferred into each well of the assay plates. Finally, each well contains a total volume of 100 µL.

In the next series the test system is human cancer cell lines. The experiment in a line: MTT cell viability assay, whole cell line panel. In kind it is cell-based. The protocol: as §2
A general note: Tetrazolium dyes change colour on reduction, which living cells bring about.

For series [5], the system named is human topoisomerase II alpha. The experiment in a line: Topoisomerase II DNA cleavage assay. It counts as biochemical. The note with it: supercoil pBR322, ATP, 30 min, 37 °C; linear DNA; two independent times. The protocol:
Topoisomerase I/II cleavage assay: A commercial Human topoisomerase cleavage assay kit (Inspiralis, UK) was used in this study with a slight modification. Camptothecin (Sigma, USA) and Etoposide (Sigma, USA) were used as the positive control for topoisomerase I cleavage assay and topoisomerase II cleavage assay, respectively. The assay was performed according to the manufacture’s protocol. Briefly, 29 µL of the master mixture was prepared by adding 3 µL of 10 x assay buffer, 1 µL of 1 µg/µL supercoil pBR322, 1 µL of 30 mM ATP (only used in topoisomerase II cleavage assay), 1.5 µL serial diluted compounds (dissolved in DMSO) and H2O. Finally, 1 µL of 10 U/µL human topoisomerase I/II alpha was added to the reaction mixture. The reaction was incubated for 30 minutes at 37℃. After incubation, 3 µL of 2% (w/v) SDS and 1.5 µL of 10 mg/mL proteinase K was added. The reaction was mixed briefly and incubated for another 30 minutes at 37 ℃. The reaction was stopped by added 10 µL of H2O, 40 µL of STEB stop buffer and 40 µL of Chloroform/isoamyl alcohol (v:v, 24:1). The mixture was vortexed vigorously for 10 secs and centrifuged for 2 minutes. 20 µL of aqueous phase was loaded onto 1% (w/v) agarose gel and separated at 80 V for 2 hours in 0.5% TBE buffer. […]

With `CCCCCCCCCCCC(O)CC(=O)N[C@@H](C)C(=O)N[C@@H](CO)C(=O)N[C@@H](C)C(=O)Nc1ccc(-c2nc(-c3nc(C(=O)N[C@@H](CC(N)=O)C(=O)Nc4ccc(C(=O)Nc5ccc(C(=O)Nc6ccc(C(=O)O)cc6)c(O)c5OC(C)C)cc4)cs3)cs2)cc1` (stereo partly drawn) [Lapcin, 4-(4-(4-((2S)-4-amino-2-(2'-(4-((2S)-2-((2S)-3-hydroxy-2-((2S)-2-(3-hydroxytetradecanamido)propanamido)propanamido)propanamido)phenyl)-[2,4'-bithiazole]-4-carboxamido)-4-oxobutanamido)benzamido)-2-hydroxy-3-isopropoxybenzamido)benzoic acid], the “MIC, Acinetobacter baumannii” value in series [1] is reported as over 32 µg/mL. The “MIC, Enterobacter cloacae” value in series [2] is given as over 32 µg/mL. Besides, the “MIC, Klebsiella pneumonia” value in [3] is listed as over 32 µg/mL. For the same compound, the “potency vs etoposide, NCI-H226” value with NCI-H226 cells (compared with etoposide) is “essentially equipotent”. Besides, the IC50 is 241 nM in the series with NCI-H226 cells (lung cancer, MTT, 48 h, 37 °C, RPMI-1640 + 10% FBS, 10,000 cells/well, absorbance 570 nm, n = 3 biologically independent); 923 nM with HCT116 cells; 1.29 nM in the series with U2OS (Bone) cells (bone cancer, MTT, 48 h, 37 °C, DMEM + 10% FBS + NEAA, 2,500 cells/well, absorbance 570 nm, n = 3 biologically independent); 37.2 nM with SW480 cells; 48.4 nM with HEK293 cells; 212 nM in the series on HCC1806 cells. Moreover, the half-maximal inhibitory concentration (IC50) in the series on HT29 cells amounted to 0.516 nM; in the series with MCF 7 cells, 35.1 nM. The “activity against U2OS in words” value in the series on U2OS (Bone) cells (human bone osteosarcoma epithelial cell line U2OS) was “retained potent activity”. The “antimicrobial or antifungal activity” value in series [4] is “no antimicrobial or antifungal activity”. In addition, in the series with human cancer cell lines (Table 1 IC50s, therapeutic window), the “difference in IC50 between non-cancerous HEK293 and most susceptible cell lines” value is on record as “over 3 orders of magnitude”. For the same compound, the “potency relative to etoposide in cell lines” value with human cancer cell lines (all cell lines except NCI-H226) is recorded as “more potent than the topoisomerase II inhibitor etoposide”. Further, the “cytotoxic potency (IC50) in words” value in the series with human cancer cell lines (breast, lung, colon, bone and cervical cancer cell lines, MTT, 48 h) is “nM to pM IC50s; also recorded: potent human cancer cell line toxin; also recorded: nM to pM (IC50) inhibitor”. In the series with human cancer cell lines (exception of HCT116, HCC1806 and NCI-H226), the “potency relative to camptothecin in cell lines” value is “more potent than the topoisomerase I inhibitor camptothecin”. For the same compound, the “correlation of activity with p53 expression” value with human cancer cell lines (reported p53 expression levels of the cell lines tested) is “general correlation between lapcin activity and reported p53 expression levels”. The “accumulation of cleavage product, Topo II” value in series [5] is reported as “did not observe the accumulation of a cleavage product”.
